For six compounds, Solubility and Purity results are on record in patent publication US20240043434A1, “COCRYSTALS OF UPADACITINIB” (AbbVie Inc., priority 2021, published 2024).

The structures appear in SMILES notation. In brackets after ≈: the same amount, converted by molar mass. Where two headings read alike, the source gives them in different places.

The nature of data set [1]: Aqueous solubility determination of upadacitinib cocrystals. Format: physicochemical. The conditions noted are these: aqueous solubility in water at 37° C., equilibrated by end-over-end tumbling for up to 24 hours. The method, then:
A solubility study was performed to determine the aqueous solubility for five of the upadacitinib cocrystals disclosed herein. Sufficiently sized samples of the solid cocrystals were added to individual vials along with a measured volume of water. The water-cocrystal mixtures were equilibrated at 37° C. by end-over-end tumbling for up to 24 hours. The amount of dissolved solid was determined for each sample.

Data set [2] is described as follows: Storage stability determination of upadacitinib cocrystals (open dish, 40° C./75% RH). Format: physicochemical. More on the design: reference not given here. The following applies: chemical purity after storage in open dish at 40° C./75% RH up to one month. The method, then:
A storage stability study was performed to determine the short term stability for each of the five upadacitinib cocrystals disclosed herein. Samples of each upadacitinib cocrystal were stored in an open dish at 40° C./75% relative humidity (RH) for up to one month.

Take `CC[C@@H]1CN(C(=O)NCC(F)(F)F)C[C@@H]1c1cnc2cnc3[nH]ccc3n12.O=C(O)c1ccc(O)c(O)c1` [3,4-dihydroxybenzoic acid cocrystal]: the Solubility (in general, the dissolved amount per volume that the medium holds) in data set [1] is recorded as 11.3 ± 0.2 mg/mL. The compound also showed a Purity in data set [2] of 103.9%.

For the compound `CC(=O)Nc1ccc(C(=O)O)cc1.CC[C@@H]1CN(C(=O)NCC(F)(F)F)C[C@@H]1c1cnc2cnc3[nH]ccc3n12` [4-acetamidobenzoic acid cocrystal], in data set [1], the Solubility was determined as 2.53 ± 0.03 mg/mL. The Purity in data set [2] worked out at 100.0%.

Regarding `CC[C@@H]1CN(C(=O)NCC(F)(F)F)C[C@@H]1c1cnc2cnc3[nH]ccc3n12.O=C(O)c1ccc(O)c([N+](=O)[O-])c1` [4-hydroxy-3-nitrobenzoic acid cocrystal], in data set [1], the Solubility was found to be 1.47 ± 0.01 mg/mL. The Purity in data set [2] came to 99.9%.

Consider `CC[C@@H]1CN(C(=O)NCC(F)(F)F)C[C@@H]1c1cnc2cnc3[nH]ccc3n12.O=C(O)c1ccc(O)cc1` [4-hydroxybenzoic acid cocrystal], for which, in data set [1], the Solubility is on record as 4.29 ± 0.05 mg/mL. This compound also came in with a Purity in data set [2] of 102.7%.

With `CC[C@@H]1CN(C(=O)NCC(F)(F)F)C[C@@H]1c1cnc2cnc3[nH]ccc3n12` [Upadacitinib Form I, (3S,4R)-3-ethyl-4-(3H-imidazo[1,2-a]pyrrolo[2,3-e]pyrazin-8-yl)-N-(2,2,2-trifluoroethyl)pyrrolidine-1-carboxamide, reference compound], in data set [1] (thermodynamic from solid, read-out: Solubility), the Solubility was determined as 0.37 ± 0.004 mg/mL (≈ 973 µM). This compound also displayed a Purity in data set [2] of 100.2%.

With `CCC1CN(C(=O)NCC(F)(F)F)CC1c1cnc2cnc3[nH]ccc3n12.O=C(O)c1cc(O)c(O)c(O)c1` (stereo not drawn) [gallic acid cocrystal], the Solubility in data set [1] was 5.13 ± 0.05 mg/mL. Moreover, the Purity in data set [2] is 103.8%.
